# “And” between values parts separate entries of the source, which are not always exact repeats. Equal entries are not always repeated. Marks after values point to notes of the source that are not given here.
# System: sunflower lines (WT, A122T/A122T, A122T/P197L, P197L/P197L)
# Assay: Greenhouse whole-plant response to metsulfuron methyl, Example 5
# Type: in vivo, Helianthus annuus
# Settings: 14 DAT
# Protocol: Seeds were sown in Petri dishes and, after germination, plantlets were transplanted into 10 cm pots containing potting media consisting of equal parts of vermiculite, soil, and sand. Plants were grown in the greenhouse under natural light conditions supplemented with 400 W sodium halide lamps to provide a 16 hr daylength. Day/night temperatures were 25 and 20° C., respectively. At the V2-V4 stage (Schneiter & Miller, 1981) 20 plants of each genotype were randomly assigned to each treatment consisting of three metsulfuron methyl doses (0 or no treatment, 5 g ai/ha or a 1× rate, and 10 g ai/ha or a 2× rate). A zero-time biomass determination was also conducted. The experiment was arranged as a randomized complete block design (RCBD) with a full factorial arrangement of treatments and 20 replications (sunflower line×treatment).
# For the zero-time dried weight determination, ten plants of each genotype were cut at the cotyledonal node on the day of herbicide application and dried at 60° C. for 48 hr. The rest of the plants were maintained for 14 days after herbicide treatment (DAT) and their height, Phytotoxicity Index (PI) and above ground dry biomass were recorded. Height was determined as the distance between the cotyledonal node and the apex of each plant. The above ground biomass data for each line was converted to biomass accumulation after application by subtracting the appropriate average zero-time biomass from each sample. Height and dry biomass were converted to a percentage of the untreated control for each line to allow direct comparisons between groups.
# The data was subjected to an ANOVA and the means were compared by an LSD test.
# [1] = BTSu-R1 (P197L/P197L), 1X (5 g ai./ha)
# [2] = BTSu-R1 (P197L/P197L), 2X (10 g ai./ha)
# [3] = GM40 (A122T/A122T), 1X (5 g ai./ha)
# [4] = GM40 (A122T/A122T), 2X (10 g ai./ha)
# [5] = GM1606 (A122T/A122T), 1X (5 g ai./ha)
# [6] = GM1606 (A122T/A122T), 2X (10 g ai./ha)
# [7] = L4 (A122T/A122T), 1X (5 g ai./ha)
# [8] = L4 (A122T/A122T), 2X (10 g ai./ha)
# [9] = cmsGM40xBTSu-R1 (A122T/P197L), 1X (5 g ai./ha)
# [10] = cmsGM40xBTSu-R1 (A122T/P197L), 2X (10 g ai./ha)
# [11] = cmsGM40xL4 (A122T/A122T), 1X (5 g ai./ha)
# [12] = cmsGM40xL4 (A122T/A122T), 2X (10 g ai./ha)
smiles,measurement,setting,value
COC(=O)c1ccccc1S(=O)(=O)NC(=O)Nc1nc(C)nc(OC)n1 [metsulfuron],Dry Matter accumulation (DMA),"B770 (WT), 1X (5 g ai./ha)",28.43^b %
same,Phytotoxicity Index (PI) (scale 0-9),"B770 (WT), 1X (5 g ai./ha)",8.50^bc
same,Dry Matter accumulation (DMA),"B770 (WT), 2X (10 g ai./ha)",28.77^b %
same,Mean Height Reduction (PH),"B770 (WT), 2X (10 g ai./ha)",18.20^a %
same,Phytotoxicity Index (PI) (scale 0-9),"B770 (WT), 2X (10 g ai./ha)",9.00^d
same,Dry Matter accumulation (DMA),[1],88% and 88.1% and 88.10^d %
same,Mean Height Reduction (PH),[1],79.01^b %
same,Dry Matter accumulation (DMA),[2],77% and 76.69^c %
same,Mean Height Reduction (PH),[2],80.85^c %
same,Dry Matter accumulation (DMA),[3],25.73^ab %
same,Mean Height Reduction (PH),[3],21.39^a %
same,Phytotoxicity Index (PI) (scale 0-9),[3],9.00^d
same,Dry Matter accumulation (DMA),[4],20.69^a %
same,Mean Height Reduction (PH),[4],21.17^a %
same,Phytotoxicity Index (PI) (scale 0-9),[4],9.00^d
same,Dry Matter accumulation (DMA),[5],30.39^b %
same,Mean Height Reduction (PH),[5],21.55^a %
same,Phytotoxicity Index (PI) (scale 0-9),[5],8.70^d
same,Dry Matter accumulation (DMA),[6],20.45^a %
same,Mean Height Reduction (PH),[6],21.70^a %
same,Phytotoxicity Index (PI) (scale 0-9),[6],9.00^d
same,Dry Matter accumulation (DMA),[7],25.40^ab %
same,Mean Height Reduction (PH),[7],19.47^a %
same,Phytotoxicity Index (PI) (scale 0-9),[7],8.25^b
same,Dry Matter accumulation (DMA),[8],18.80^a %
same,Mean Height Reduction (PH),[8],18.73^a %
same,Phytotoxicity Index (PI) (scale 0-9),[8],8.5^c
same,Dry Matter accumulation (DMA),[9],74.4% and 74.36^c %
same,Mean Height Reduction (PH),[9],77.04^b %
same,Phytotoxicity Index (PI) (scale 0-9),[9],0.00^a
same,Dry Matter accumulation (DMA),[10],72.66^c %
same,Mean Height Reduction (PH),[10],62% and 61.99^b %
same,Dry Matter accumulation (DMA),[11],19.90^a %
same,Mean Height Reduction (PH),[11],22.45^a %
same,Phytotoxicity Index (PI) (scale 0-9),[11],8.67 ^d
same,Dry Matter accumulation (DMA),[12],18.23^a %
same,Mean Height Reduction (PH),[12],20.56^a %
same,Phytotoxicity Index (PI) (scale 0-9),[12],8.82^cd
